Where two headings read alike, the source gives them in different places.
Tests used:
IKKε = IKKε (Homo sapiens (Human), UniProt Q14164); test: Lanthascreen TR-FRET kinase inhibition assay, IKKε; assay type: biochemical
Method in brief: (§1)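 TR-FRET: terbium phosphospecific antibody detects phosphorylation of 400 nM fluorescein-IkBα peptide, 20 μM ATP, 20 °C, HEPES pH 7.5 with 3% DMSO. IKKε at 2 nM, 1 h reaction; TBK1 at 8 nM, 2.5 h reaction; started by kinase addition.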

TBK1 = TBK1 (Homo sapiens (Human), UniProt Q9UHD2); test: Lanthascreen TR-FRET kinase inhibition assay, TBK1; assay type: biochemical; settings: 20 μM ATP (apparent Km), 8 nM kinase, 2.5 h
Chain of TBK1 (Q9UHD2 whole entry): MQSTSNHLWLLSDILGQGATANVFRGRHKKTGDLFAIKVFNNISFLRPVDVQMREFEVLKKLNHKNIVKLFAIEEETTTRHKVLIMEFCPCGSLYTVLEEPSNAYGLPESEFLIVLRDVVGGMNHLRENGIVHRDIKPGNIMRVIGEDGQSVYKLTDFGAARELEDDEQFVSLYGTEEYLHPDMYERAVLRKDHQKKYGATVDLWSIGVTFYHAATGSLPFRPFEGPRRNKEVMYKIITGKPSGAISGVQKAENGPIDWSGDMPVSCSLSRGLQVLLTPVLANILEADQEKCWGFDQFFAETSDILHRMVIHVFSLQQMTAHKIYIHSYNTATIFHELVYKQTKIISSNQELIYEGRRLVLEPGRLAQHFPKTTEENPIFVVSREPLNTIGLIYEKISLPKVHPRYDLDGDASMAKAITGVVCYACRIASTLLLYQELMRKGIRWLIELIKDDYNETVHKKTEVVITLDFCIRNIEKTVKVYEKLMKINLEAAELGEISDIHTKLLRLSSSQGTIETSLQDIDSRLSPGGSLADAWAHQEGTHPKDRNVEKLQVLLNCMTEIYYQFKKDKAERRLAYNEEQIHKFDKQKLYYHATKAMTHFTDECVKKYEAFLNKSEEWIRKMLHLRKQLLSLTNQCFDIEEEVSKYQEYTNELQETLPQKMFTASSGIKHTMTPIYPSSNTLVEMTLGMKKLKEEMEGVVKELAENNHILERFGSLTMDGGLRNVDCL
Method in brief: as §1

[1] = 20 μM ATP (apparent Km), 2 nM kinase, 1 h

Chain of IKKε (Q14164 whole entry): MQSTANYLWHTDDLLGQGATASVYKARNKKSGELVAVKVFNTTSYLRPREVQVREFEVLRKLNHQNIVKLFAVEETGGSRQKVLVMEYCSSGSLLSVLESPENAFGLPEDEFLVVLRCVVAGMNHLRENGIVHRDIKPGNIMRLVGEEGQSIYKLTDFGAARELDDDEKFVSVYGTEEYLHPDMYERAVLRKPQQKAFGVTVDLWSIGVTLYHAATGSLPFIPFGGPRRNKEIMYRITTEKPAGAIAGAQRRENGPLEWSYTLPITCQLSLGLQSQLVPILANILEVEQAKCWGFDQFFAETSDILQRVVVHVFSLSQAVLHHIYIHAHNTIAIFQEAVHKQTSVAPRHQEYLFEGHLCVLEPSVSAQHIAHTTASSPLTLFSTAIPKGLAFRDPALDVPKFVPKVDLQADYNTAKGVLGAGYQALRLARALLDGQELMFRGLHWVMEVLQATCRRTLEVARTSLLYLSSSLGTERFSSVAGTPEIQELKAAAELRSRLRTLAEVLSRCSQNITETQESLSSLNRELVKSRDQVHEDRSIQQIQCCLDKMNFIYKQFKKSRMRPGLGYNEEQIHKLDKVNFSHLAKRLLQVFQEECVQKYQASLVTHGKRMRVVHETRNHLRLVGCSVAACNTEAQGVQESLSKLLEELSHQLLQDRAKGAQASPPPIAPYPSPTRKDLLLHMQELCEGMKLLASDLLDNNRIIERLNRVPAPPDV

SMILES | IC50 (IKKε; [1]) [nM] | IC50 (TBK1) [nM] | IC50 (IKKε) [nM]
CC(=O)NCC1CCCN1c1ncc(-c2ccnc(Nc3ccc(CN4CCOCC4)nc3)n2)cc1C#N (stereo not shown) [DMX-130, N-(1-{3-Cyano-5-[2-(6-morpholin-4-ylmethyl-pyridin-3-ylamino)-pyrimidin-4-yl]-pyridin-2-yl}-pyrrolidin-2-ylmethyl)-acetamide] | < 1000 | < 1000 | –
N#Cc1cc(-c2nc(Nc3ccc(CN4CCOCC4)nc3)ncc2F)cnc1N1CCCOCC1 [DMX-87, 5-[5-Fluoro-2-(6-morpholin-4-ylmethyl-pyridin-3-ylamino)-pyrimidin-4-yl]-2-[1,4]oxazepan-4-yl-nicotinonitrile] | < 100 | < 100 | –
CC(=O)Nc1ccc(Nc2nccc(-c3cnc(N4CC[C@H](F)C4)c(C#N)c3)n2)cn1 [DMX-8, N-(5-{4-[5-Cyano-6-((S)-3-fluoro-pyrrolidin-1-yl)-pyridin-3-yl]-pyrimidin-2-ylamino}-pyridin-2-yl)-acetamide] | < 30 | < 30 | –
CC(Nc1ncc(-c2ccnc(Nc3ccc(CN4CCOCC4)nc3)n2)cc1C#N)C(N)=O (stereo not shown) [DMX-134, 2-{3-Cyano-5-[2-(6-morpholin-4-ylmethyl-pyridin-3-ylamino)-pyrimidin-4-yl]-pyridin-2-ylamino}-propionamide] | < 100 | < 100 | –
Cn1cc(Nc2nccc(-c3ccc(N4CC[C@H](O)C4)c(C#N)n3)n2)cn1 [DMX-59, 3-((S)-3-Hydroxy-pyrrolidin-1-yl)-6-[2-(1-methyl-1H-pyrazol-4-ylamino)-pyrimidin-4-yl]-pyridine-2-carbonitrile] | < 100 | < 100 | –
CN(CCO)Cc1ccc(Nc2nccc(-c3cnc(N4CC[C@H](F)C4)c(C#N)c3)n2)cn1 [DMX-104, 2-((S)-3-Fluoro-pyrrolidin-1-yl)-5-[2-(6-{[(2-hydroxy-ethyl)-methyl-amino]-methyl}-pyridin-3-ylamino)-pyrimidin-4-yl]-nicotinonitrile] | < 100 | < 100 | –
CN(c1ncc(-c2ccnc(Nc3ccc(CN4CCOCC4)nc3)n2)cc1C#N)C1CCOC1 (stereo not shown) [DMX-163, 2-[Methyl-(tetrahydro-furan-3-yl)-amino]-5-[2-(6-morpholin-4-ylmethyl-pyridin-3-ylamino)-pyrimidin-4-yl]-nicotinonitrile] | < 100 | < 100 | –
COCCNCc1cncc(Nc2nccc(-c3cnc(N4CC[C@H](F)C4)c(C#N)c3)n2)c1 [DMX-106, 2-((S)-3-Fluoro-pyrrolidin-1-yl)-5-(2-{5-[(2-methoxy-ethylamino)-methyl]-pyridin-3-ylamino}-pyrimidin-4-yl)-nicotinonitrile] | < 100 | < 100 | –
Cc1nccn1Cc1ccc(Nc2nccc(-c3ccc(N4CC[C@H](F)C4)c(C#N)n3)n2)cn1 [DMX-151, 3-((S)-3-Fluoro-pyrrolidin-1-yl)-6-{2-[6-(2-methyl-imidazol-1-ylmethyl)-pyridin-3-ylamino]-pyrimidin-4-yl}-pyridine-2-carbonitrile] | < 30 | < 30 | –
N#Cc1nc(-c2ccnc(Nc3ccc(CN4CCOCC4)nc3)n2)ccc1N1CCC2(COC2)C1 [DMX-165, 6-[2-(6-Morpholin-4-ylmethyl-pyridin-3-ylamino)-pyrimidin-4-yl]-3-(2-oxa-6-aza-spiro[3.4]oct-6-yl)-pyridine-2-carbonitrile] | < 15 | < 30 | –
Cn1cc(NC(=O)[C@H]2CCCN2c2ncc(-c3ccnc(Nc4cnn(C)c4)n3)cc2C#N)cn1 [DMX-41, (R)-1-{3-Cyano-5-[2-(1-methyl-1H-pyrazol-4-ylamino)-pyrimidin-4-yl]-pyridin-2-yl}-pyrrolidine-2-carboxylic acid (1-methyl-1H-pyrazol-4-yl)-amide] | < 1000 | < 100 | –
CN(CCO)c1cc(Nc2nccc(-c3cnc(N4CC[C@H](F)C4)c(C#N)c3)n2)ccn1 [DMX-101, 2-((S)-3-Fluoro-pyrrolidin-1-yl)-5-(2-{2-[(2-hydroxy-ethyl)-methyl-amino]-pyridin-4-ylamino}-pyrimidin-4-yl)-nicotinonitrile] | < 30 | < 30 | –
N#Cc1cc(-c2ccnc(Nc3ccnc(NC(=O)CN4CCOCC4)c3)n2)cnc1N1CC[C@@H](F)C1 [DMX-111, N-(4-{4-[5-Cyano-6-((R)-3-fluoro-pyrrolidin-1-yl)-pyridin-3-yl]-pyrimidin-2-ylamino}-pyridin-2-yl)-2-morpholin-4-yl-acetamide] | < 30 | < 15 | –
COCCN1Cc2ccc(Nc3nccc(-c4cnc(N5CC[C@H](F)C5)c(C#N)c4)n3)cc2C1 [DMX-127, 2-((S)-3-Fluoro-pyrrolidin-1-yl)-5-{2-[2-(2-methoxy-ethyl)-2,3-dihydro-1H-isoindol-5-ylamino]-pyrimidin-4-yl}-nicotinonitrile] | < 15 | < 15 | –
N#Cc1cc(-c2ccnc(Nc3ccc(NC(=O)CN4CCCC4)nc3)n2)cnc1N1CC[C@H](F)C1 [DMX-66, N-(5-{4-[5-Cyano-6-((S)-3-fluoro-pyrrolidin-1-yl)-pyridin-3-yl]-pyrimidin-2-ylamino}-pyridin-2-yl)-2-pyrrolidin-1-yl-acetamide] | < 100 | < 30 | –
N#Cc1cc(-c2ccnc(Nc3ccc(NC(=O)C4CC4)nc3)n2)cnc1N1CC[C@H](F)C1 [DMX-19, Cyclopropanecarboxylic acid (5-{4-[5-cyano-6-((S)-3-fluoro-pyrrolidin-1-yl)-pyridin-3-yl]-pyrimidin-2-ylamino}-pyridin-2-yl)-amide] | < 100 | < 100 | –
N#Cc1cc(-c2ccnc(Nc3cccc(C(=O)NC4CCNCC4)c3)n2)cnc1N1CC[C@H](F)C1 [DMX-11, 3-{4-[5-Cyano-6-((S)-3-fluoro-pyrrolidin-1-yl)-pyridin-3-yl]-pyrimidin-2-ylamino}-N-piperidin-4-yl-benzamide] | < 30 | < 30 | –
CC1(O)CN(Cc2ccc(Nc3nccc(-c4cnc(N5CC[C@H](F)C5)c(C#N)c4)n3)cn2)C1 [DMX-110, 2-((S)-3-Fluoro-pyrrolidin-1-yl)-5-{2-[6-(3-hydroxy-3-methyl-azetidin-1-ylmethyl)-pyridin-3-ylamino]-pyrimidin-4-yl}-nicotinonitrile] | < 30 | < 100 | –
N#Cc1cc(-c2ccnc(Nc3ccc(CN4CC[C@H](F)C4)nc3)n2)cnc1N1CC[C@H](F)C1 [DMX-80, 2-((S)-3-Fluoro-pyrrolidin-1-yl)-5-{2-[6-((S)-3-fluoro-pyrrolidin-1-ylmethyl)-pyridin-3-ylamino]-pyrimidin-4-yl}-nicotinonitrile] | < 15 | < 30 | –
N#Cc1cc(-c2ccnc(Nc3ccnc(CN4CCOCC4)c3)n2)cnc1N1CC[C@H](F)C1 [DMX-99, 2-((S)-3-Fluoro-pyrrolidin-1-yl)-5-[2-(2-morpholin-4-ylmethyl-pyridin-4-ylamino)-pyrimidin-4-yl]-nicotinonitrile] | < 30 | < 15 | –
N#Cc1cc(-c2ccnc(Nc3ccc(NC(=O)CN4CC[C@H](O)C4)nc3)n2)cnc1N1CC[C@H](F)C1 [DMX-35, N-(5-{4-[5-Cyano-6-((S)-3-fluoro-pyrrolidin-1-yl)-pyridin-3-yl]-pyrimidin-2-ylamino}-pyridin-2-yl)-2-((S)-3-hydroxy-pyrrolidin-1-yl)-acetamide] | – | < 100 | < 30
N#Cc1cc(-c2ccnc(Nc3ccc(CN4CCOCC4)nc3)n2)cnc1NCC1CCOC1 (stereo not shown) [DMX-138, 5-[2-(6-Morpholin-4-ylmethyl-pyridin-3-ylamino)-pyrimidin-4-yl]-2-[(tetrahydro-furan-3-ylmethyl)-amino]-nicotinonitrile] | < 1000 | < 100 | –
N#Cc1cc(-c2ccnc(Nc3cncc(CN4CCOCC4)c3)n2)cnc1N1CC[C@H](F)C1 [DMX-100, 2-((S)-3-Fluoro-pyrrolidin-1-yl)-5-[2-(5-morpholin-4-ylmethyl-pyridin-3-ylamino)-pyrimidin-4-yl]-nicotinonitrile] | < 30 | < 30 | –
N#Cc1cc(-c2ccnc(Nc3ccc(CN4CCOCC4)nc3)n2)cnc1N1CCC2(COC2)C1 [DMX-92, 5-[2-(6-Morpholin-4-ylmethyl-pyridin-3-ylamino)-pyrimidin-4-yl]-2-(2-oxa-6-aza-spiro[3.4]oct-6-yl)-nicotinonitrile] | < 30 | < 100 | –
N#Cc1nc(-c2ccnc(Nc3ccc(NC(=O)CN4CC[C@H](F)C4)nc3)n2)ccc1N1CC[C@H](O)C1 [DMX-146, N-(5-{4-[6-Cyano-5-((S)-3-hydroxy-pyrrolidin-1-yl)-pyridin-2-yl]-pyrimidin-2 ylamino}-pyridin-2-yl)-2-((S)-3-fluoro-pyrrolidin-1-yl)-acetamide] | < 100 | < 30 | –
N#Cc1cc(-c2ccnc(Nc3cnn(CCN4CCOCC4)c3)n2)cnc1N1CC[C@H](F)C1 [DMX-53, 2-((S)-3-Fluoro-pyrrolidin-1-yl)-5-{2-[1-(2-morpholin-4-yl-ethyl)-1H-pyrazol-4-ylamino]-pyrimidin-4-yl}-nicotinonitrile] | < 100 | < 30 | –
N#Cc1cc(-c2ccnc(Nc3cn[nH]c3)n2)cnc1N1CC[C@H](F)C1 [DMX-63, 2-((S)-3-Fluoro-pyrrolidin-1-yl)-5-[2-(1H-pyrazol-4-ylamino)-pyrimidin-4-yl]-nicotinonitrile] | < 15 | < 15 | –
C[C@H]1COCCN1Cc1ccc(Nc2nccc(-c3cnc(N4CC[C@H](F)C4)c(C#N)c3)n2)cn1 [DMX-79, 2-((S)-3-Fluoro-pyrrolidin-1-yl)-5-{2-[6-((S)-3-methyl-morpholin-4-ylmethyl)-pyridin-3-ylamino]-pyrimidin-4-yl}-nicotinonitrile] | < 100 | < 30 | –
N#Cc1cc(-c2ccnc(Nc3cnn(C[C@@H](O)CO)c3)n2)cnc1N1CCCC1 [DMX-39, 5-{2-[1-((R)-2,3-Dihydroxy-propyl)-1H-pyrazol-4-ylamino]-pyrimidin-4-yl}-2-pyrrolidin-1-yl-nicotinonitrile] | < 30 | < 15 | –

Source: US9433622B2, “Pyrimidine compounds useful in the treatment of diseases mediated by IKKE and/or TBK1 mechanisms” (DOMAINEX LIMITED, priority 2013, dated 2016)
